In patent EP1420018A1, “Pyrido[1,2-a]benzimidazole derivatives useful in treating central nervous system disorders” (Ortho-McNeil Pharmaceutical, Inc., priority 1996, dated 1998):
pIC50: −log10 of the molar value. Where two headings read alike, the source gives them in different places.

Experiments:
[1] = test system: metrazol-induced convulsions; assay: Suppression of Metrazol-Induced Convulsions in Adult Male Mice; assay type: in vivo; details: mouse; for ED50: Mus musculus, ip
[2] = test system: Anxiety in the Adult Male Rat; assay: Suppression of Anxiety in the Adult Male Rat (rat conflict test); assay type: in vivo, rats; details: rat; for minimal effective dose: Rattus norvegicus
Outline: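 Male rats, 48 h water- and 24 h food-deprived, trained with 200 unpunished licks, tested at expected peak drug activity. Every 20th lick punished by 0.2-s shock over a 3-min session; increase in median shocks versus concurrent vehicle assessed by one-tailed Mann-Whitney test (p<0.05), validated with a positive-control anxiolytic.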

[3] = test system: metrazol-induced convulsions; assay: Suppression of Metrazol-Induced Convulsions in Adult Male Mice; assay type: in vivo; details: mouse; for ED50: Mus musculus, po
[4] = target: benzodiazepine site of the GABA-A receptor; assay: Benzodiazepine Receptor Binding Assay (inhibition of 3H-flunitrazepam binding); details: read-out: GABAA Receptor Binding IC50
[5] = po, po, read-out: Rat Conflict (MED, mg/kg) po
[6] = ip, ip, read-out: Rat Conflict (MED, mg/kg) ip

Compound	ED50 [1] [mg/kg]	Rat Conflict (MED, mg/kg) po ([2]; po) [mg/kg]	Mouse Metrazol (ED50, mg/kg) po [3]	pIC50 [4]	minimal effective dose [2, 5] [mg/kg]	ED50 [3] [mg/kg]	Mouse Metrazol (ED50, mg/kg) ip [1] [mg/kg]	minimal effective dose [2, 6] [mg/kg]
COCCN1C2=C(C(=O)Nc3nccs3)C(=O)CCN2c2ccc(F)cc21 [Compound 140]	< 1	>10	0.3 mg/kg	8.40	–	–	–	–
CCOCCN1C2=C(C(=O)Nc3nccs3)C(=O)CCN2c2ccc(F)cc21 [Compound 141]	< 1	–	–	8.17	> 3	~6	–	–
COCCN1C2=C(C(=O)Nc3ccc(C)s3)C(=O)CCN2c2ccccc21 [Compound 142]	< 1	–	–	8.50	~1	0.7	–	–
COCCN1C2=C(C(=O)Nc3ccc(C)s3)C(=O)CCN2c2ccc(F)cc21 [Compound 143]	< 1	–	–	8.87	< 10	0.7	–	–
COCCN1C2=C(C(=O)Nc3ccc(Br)s3)C(=O)CCN2c2ccc(F)cc21 [Compound 144]	< 1	–	–	8.28	> 10	~10	–	–
COCCN1C2=C(C(=O)Nc3ccc(Cl)s3)C(=O)CCN2c2ccc(F)cc21 [Compound 145]	< 1	–	–	8.69	> 10	~30	–	–
COCCN1C2=C(C(=O)Nc3ccc(Cl)s3)C(=O)CCN2c2ccccc21 [Compound 146]	< 1	–	–	8.68	> 10	> 30	–	–
COCCN1C2=C(C(=O)Nc3ccccc3F)C(=O)CCN2c2ccc(Cl)cc21 [Compound 147]	< 1	–	–	8.60	> 10	~5	–	–
COCCN1C2=C(C(=O)Nc3ccccc3F)C(=O)CCN2c2ccc(C(F)(F)F)cc21 [Compound 148]	< 1	–	–	8.70	> 10	~10	–	–
COCCN1C2=C(C(=O)Nc3ccccc3F)C(=O)CCN2c2ccc(F)c(F)c21 [Compound 149]	< 1	–	–	8.97	> 10	3	–	–
CC(C)OCCN1C2=C(C(=O)Nc3ccccc3F)C(=O)CCN2c2ccc(F)cc21 [Compound 150]	< 1	–	–	9.49	10	1	–	–
COCCN1C2=C(C(=O)Nc3c(F)cccc3F)C(=O)CCN2c2ccccc21 [Compound 151]	< 1	–	–	8.33	10	~2	–	–
CCOCCCN1C2=C(C(=O)Nc3ccccc3F)C(=O)CCN2c2ccc(F)cc21 [Compound 152]	< 1	–	–	9.55	1	~0.3	–	–
COCCN1C2=C(C(=O)Nc3ccccc3F)C(=O)CCN2c2ccccc21 [Compound 153]	< 1	–	–	8.89	≤ 1	1	–	–
CCOC(CCN1C2=C(C(=O)Nc3ccccc3F)C(=O)CCN2c2ccc(F)cc21)OCC [Compound 154]	< 1	–	–	8.16	3	~3	–	–
COCCN1C2=C(C(=O)Nc3nccs3)C(=O)CCN2c2ccc(F)cc21 [Compound 155]	–	3	ca. 1.5 mg/kg	8.21	–	–	<1	–

Compound	ED50 [1] [mg/kg]	Rat Conflict (MED, mg/kg) po ([2]; po) [mg/kg]	Mouse Metrazol (ED50, mg/kg) po [3]	pIC50 [4]	minimal effective dose [2, 5] [mg/kg]	ED50 [3] [mg/kg]	Mouse Metrazol (ED50, mg/kg) ip [1] [mg/kg]	minimal effective dose [2, 6] [mg/kg]
COCCN1C2=C(C(=O)Nc3ccc(Cl)cc3)C(=O)CCN2c2ccccc21 [Compound 156]	< 1	–	–	7.80	1	~2	–	–
CCOCN1C2=C(C(=O)Nc3ccccc3F)C(=O)CCN2c2ccc(Cl)cc21 [Compound 157]	< 1	–	–	9.32	> 10	~2	–	–
COCN1C2=C(C(=O)Nc3ccccc3F)C(=O)CCN2c2ccc(F)cc21 [Compound 158]	0.01	–	–	9.82	3	0.1	–	< 10
COCCOCN1C2=C(C(=O)Nc3ccccc3F)C(=O)CCN2c2ccc(F)cc21 [Compound 159]	0.003	–	–	9.10	3	0.1	–	< 10
COCCN1C2=C(C(=O)Nc3ccccc3F)C(=O)CCN2c2ccc(F)cc21 [Compound 163]	0.01	–	–	9.21	0.1	0.2	–	< 10
CC1(C)OCC(CN2C3=C(C(=O)Nc4ccccc4F)C(=O)CCN3c3ccc(F)cc32)O1 (stereo not shown) [Compound 164]	0.1	–	–	8.56	10	1	–	< 10
O=C1CCN2C(=C1C(=O)Nc1cccnc1)N(CCOCc1ccccc1)c1cc(F)ccc12 [Compound 165]	3	–	–	7.41	–	> 30	–	> 7
O=C1CCN2C(=C1C(=O)Nc1ccccc1F)N(COCc1ccccc1)c1cc(F)ccc12 [Compound 167]	< 1	–	–	9.59	> 10	< 30	–	> 10
O=C1CCN2C(=C1C(=O)Nc1ccccc1F)N(CCO)c1cc(F)ccc12 [Compound 168, 7-Fluoro-1,2-dihydro-5-(2-hydroxyethyl)-3-oxo-N-(2-fluorophenyl)pyrido[1,2-a]benzimidazole-4-carboxamide]	< 1	–	–	8.93	> 10	< 30	–	10
O=C1CCN2C(=C1C(=O)Nc1ccccc1F)N(CCCO)c1cc(F)ccc12 [Compound 169]	0.1	–	–	8.97	10	0.5	–	10
O=C1CCN2C(=C1C(=O)Nc1ccccc1F)N(CCCOCc1ccccc1)c1cc(F)ccc12 [Compound 170]	< 1	–	–	9.68	> 10	< 30	–	< 10
O=C1CCN2C(=C1C(=O)Nc1ccccc1F)N(CCOCc1ccccc1)c1cc(F)ccc12 [Compound 171, 7-Fluoro-1,2-dihydro-5-[2-(benzyloxy)ethyl]-3-oxo-N-(2-fluorophenyl)pyrido[1,2-a]benzimidazole-4-carboxamide]	0.1	–	–	8.82	10	1	–	10
CCOCN1C2=C(C(=O)Nc3ccccc3F)C(=O)CCN2c2ccc(F)cc21 [Compound 172]	0.01	–	–	9.85	0.3	0.1	–	≤ 10
CCOCN1C2=C(C(=O)Nc3c(F)cccc3F)C(=O)CCN2c2ccc(F)cc21 [Compound 173]	1	–	–	9.19	> 10	3	–	> 10
O=C1CCN2C(=C1C(=O)Nc1ccccc1F)N(CC1CCOC1)c1cc(F)ccc12 (stereo not shown) [Compound 174]	< 1	–	–	8.64	3	< 3	–	–
O=C1CCN2C(=C1C(=O)Nc1ccccc1F)N(CC1CCCO1)c1cc(F)ccc12 (stereo not shown) [Compound 175]	< 1	–	–	8.82	> 10	2	–	–
